Measured values taken from US12578336B2, “ATP detection” (Promega Corporation, priority 2022, dated 2026).
Entries after “also recorded” stand apart in the source; their conditions may differ.

T1: ENPP1 (Homo sapiens, UniProt P22413)
T1 sequence (P22413 1-925): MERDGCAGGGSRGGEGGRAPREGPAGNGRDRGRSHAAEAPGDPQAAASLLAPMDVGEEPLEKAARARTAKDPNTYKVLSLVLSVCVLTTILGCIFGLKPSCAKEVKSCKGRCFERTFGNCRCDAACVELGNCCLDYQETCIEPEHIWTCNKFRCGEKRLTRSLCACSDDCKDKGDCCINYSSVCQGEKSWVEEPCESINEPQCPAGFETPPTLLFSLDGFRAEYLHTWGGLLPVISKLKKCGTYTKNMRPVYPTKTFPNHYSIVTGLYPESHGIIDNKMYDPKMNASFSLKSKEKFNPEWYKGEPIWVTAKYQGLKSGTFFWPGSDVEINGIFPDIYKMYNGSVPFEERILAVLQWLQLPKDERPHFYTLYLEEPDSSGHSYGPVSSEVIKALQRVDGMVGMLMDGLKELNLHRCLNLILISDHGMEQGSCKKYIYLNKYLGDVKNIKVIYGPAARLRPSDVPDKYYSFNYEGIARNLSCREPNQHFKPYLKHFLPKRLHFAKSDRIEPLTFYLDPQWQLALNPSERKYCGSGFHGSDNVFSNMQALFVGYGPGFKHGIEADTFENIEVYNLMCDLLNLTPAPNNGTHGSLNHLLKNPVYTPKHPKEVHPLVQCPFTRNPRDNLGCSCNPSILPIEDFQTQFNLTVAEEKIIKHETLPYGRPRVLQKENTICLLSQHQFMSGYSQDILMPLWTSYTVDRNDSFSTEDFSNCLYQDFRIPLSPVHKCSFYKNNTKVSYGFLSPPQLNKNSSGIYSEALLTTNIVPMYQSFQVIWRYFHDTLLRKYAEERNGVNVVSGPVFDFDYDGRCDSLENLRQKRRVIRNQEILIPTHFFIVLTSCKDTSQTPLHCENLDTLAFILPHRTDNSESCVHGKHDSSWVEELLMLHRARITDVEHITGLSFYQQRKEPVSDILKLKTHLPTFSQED

B1: ENPP1: zinc-dependent enzyme that converts ATP to AMP and pyrophosphate (protein, UniProt P22413 1-925, looked up)
Ectonucleotide …: T1 sequence (P22413 1-925)

Experiments:
ENPP1 = target: T1, ENPP1; experiment: ENPP1 ATP degradation and its inhibition by chelators/inhibitor, Kinase-Glo; format: biochemical
Method: ENPP1 converts ATP to AMP and pyrophosphate, is zinc-dependent, and is inactivated by EGTA, by the zinc chelator N,N,N′,N′-Tetrakis (2 pyridylmethyl) ethylenediamine (TPEN), and by certain small molecule inhibitors.
ENPP1 (100 ng/reaction) was incubated with 10 μM ATP and varying amounts of chelators (EGTA, TPEN) or an ENPP1 selective inhibitor called inhibitor C in a reaction buffer containing 50 mM Tris HCl, pH 7.5, 250 mM NaCl, 5 uM ZnCl2, 0.1 mg/ml BSA. The reactions were allowed to proceed for 60 minutes.

Pp-apyrase [1] = target: T2, Pp-apyrase (Phlebotomus papatasi, UniProt Q9GTP7); experiment: Inactivation of Pp-apyrase by EGTA in cell lysis/ATP detection reagent, tube format; format: biochemical; conditions: 10 mM EGTA in cell lysis/ATP detection reagent
T2 construct: GST (glutathione S transferase); made in house; host or cells: E. coli
Method: Luminescent signals were measured over time starting immediately after addition of the lysis/ATP detection reagent. Reactions were performed in microcentrifuge-style tubes and analyzed for luminescence on a single tube reading luminometer (GloMax® 20/20, Promega Corp.).
Reactions were performed in microcentrifuge-style tubes and analyzed for luminescence on a single tube reading luminometer (GloMax® 20/20, Promega Corp.).

Cl-apyrase (Ca-apyrase) = target: T3, Cl-apyrase (Ca-apyrase) (Cimex lectularius, UniProt O96559); experiment: Inhibition of Cl-apyrase by EGTA, luminescence over time; format: biochemical; conditions: EGTA present; decline of luminescence over time
T3 construct: His tag; made in house; host or cells: E. coli
Source text: (§1) The Ca^2+/Mg^2+ apyrase from potato, Solanum tuberosum (St-apyrase), is the most commonly used apyrase for ATP elimination. However, its inactivation requires measures, such as high temperature or extreme pH treatment, which are incompatible with the simple cartridge design disclosed here. The need for an extended heating time for apyrase inactivation is also incompatible with the goal of rapid sample collection and analysis. […] Cl- and St-apyrase were compared for their capacity to remove extracellular ATP and to be inhibited by the Ca^2+-selective chelator EGTA. Mg^2+ is critical for luciferase activity so the Mg^2+-selective chelator EDTA was not tested. In the absence of EGTA, both enzymes eliminated ATP as indicated by a time-dependent decrease in luminescence (FIG. 3).

Pp-apyrase [2] = target: T2, Pp-apyrase; experiment: Inhibition of Pp-apyrase by EGTA in cartridge format; format: biochemical; conditions: EGTA in lysis/ATP detection reagent, after an initial ATP elimination step
Method: Apyrase from the sandfly Phlebotomus papatasi (Pp-apyrase) was also characterized for use in an exemplary cartridge format. […] Empty plastic cartridges were obtained from Empire Bio Diagnostics. […] 20 second exposures of ATP in swab tips were followed by immersion of the swab tips in the cartridge receptacle in the ATP detection/cell lysis formulation with 10 mM EGTA described for FIG. 6, and then insertion of the cartridge receptacle in a handheld luminometer (luminometer prototype by Empire Bio Diagnostics). […] A portion of the values shown above the vertical axis represent luminescent values too low to be visible as bars on the graph.

[3] = tested on: St-apyrase (Ca2+/Mg2+ apyrase from potato); experiment: Inhibition of St-apyrase by EGTA, luminescence over time; format: biochemical, Solanum tuberosum; conditions: same amount of EGTA; luminescence declined over time
Source text: as §1

T2 sequence (Q9GTP7 22-336 limits assumed): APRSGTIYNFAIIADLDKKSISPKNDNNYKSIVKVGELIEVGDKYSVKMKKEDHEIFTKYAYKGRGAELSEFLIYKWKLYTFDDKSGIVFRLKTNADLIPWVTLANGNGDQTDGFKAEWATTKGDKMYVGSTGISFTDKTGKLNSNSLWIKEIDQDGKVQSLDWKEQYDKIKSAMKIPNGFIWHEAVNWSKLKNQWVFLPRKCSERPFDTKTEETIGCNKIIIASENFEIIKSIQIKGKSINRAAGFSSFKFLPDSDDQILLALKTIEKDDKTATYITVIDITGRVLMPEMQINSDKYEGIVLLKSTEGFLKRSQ
T3 sequence (O96559 36-364 limits assumed): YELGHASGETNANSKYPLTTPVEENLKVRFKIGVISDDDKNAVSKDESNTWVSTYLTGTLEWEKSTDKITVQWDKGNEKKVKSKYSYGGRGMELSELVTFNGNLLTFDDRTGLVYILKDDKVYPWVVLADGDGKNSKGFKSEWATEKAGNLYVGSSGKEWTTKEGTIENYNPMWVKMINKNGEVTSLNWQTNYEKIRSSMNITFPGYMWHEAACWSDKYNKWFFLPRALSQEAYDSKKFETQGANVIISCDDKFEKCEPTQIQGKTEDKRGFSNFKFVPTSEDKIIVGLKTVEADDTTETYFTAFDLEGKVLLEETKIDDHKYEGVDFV

Molecule	inactivation of ENPP1 (in words) (ENPP1)	inactivation of Pp-apyrase (in words) (Pp-apyrase [1])	Cl-apyrase activity in the presence of EGTA (in words) (Cl-apyrase (Ca-apyrase))	inhibition of Pp-apyrase in cartridge format (in words) (Pp-apyrase [2])	St-apyrase inhibition in the presence of EGTA (in words) [3]	conditionally active ATP eliminating properties (in words) (ENPP1; ENPP1 100 ng/reaction, 10 μM ATP, 60 minutes, 5 uM ZnCl2)
c1ccc(CN(CCN(Cc2ccccn2)Cc2ccccn2)Cc2ccccn2)nc1 [TPEN, N,N,N′,N′-Tetrakis (2 pyridylmethyl) ethylenediamine]	inactivated	–	–	–	–	–
O=C(O)CN(CCOCCOCCN(CC(=O)O)CC(=O)O)CC(=O)O [EGTA]	inactivated	effectively inactivated; also recorded: substantially inactivated	no Cl-apyrase activity was detected; also recorded: substantially inactivated	effective	only partially inhibited	–
B1	–	–	–	–	–	qualitatively demonstrated the conditionally active ATP eliminating properties
